# Laboratory results published in patent US11364275B2, “Linear lipopeptide paenipeptins and methods of using the same” (priority 2017, dated 2022).
# “Also recorded” adds a separate entry of the source. Where a SMILES comes first, the peptide text is derived from it. [ ]: non-standard residue; d: D form. The star is where a group is joined. Dab = NCC[C@H](N)C(=O)O; Hexanoyl = CCCCCC(=O)*
# Tests used:
# [1] = system: Escherichia coli ATCC 25922; type: cell-based; conditions: ATCC 25922
# Method: (§3) The minimum inhibitory concentration (MIC) of paenipeptin analogues was determined using the broth microdilution method (Wirker, M. A. Methods for Dilution Antimicrobial Susceptibility Tests for Bacteria that Grow Aerobically: Approved Standard M07-A8; Clinical and Laboratory Standards Institute, Wayne, Pa., 2009). Seven reference strains (Acinetobacter baumannii ATCC 19606, Escherichia coli ATCC 25922, Klebsiella pneumoniae ATCC 13883, Pseudomonas aeruginosa ATCC 27853, Enterococcus faecium ATCC 19434, Staphylococcus aureus ATCC 29213 and methicillin-resistant S. aureus ATCC 43300) were subjected to MIC testing.
# (§4) Paenipeptin analogues were two-fold diluted in tryptic soy broth (TSB; Becton Dickinson) and mixed with an equal volume of bacterial suspensions in TSB containing approximately 1.5×10^5 colony-forming units (CFU)/mL in a clear UV-sterilized 96-well microtiter plate (NBS, Corning Inc., Corning, N.Y.). […] The microtiter plate was incubated at 37° C. for 18-20 h.
# [2] = system: A. baumannii FDA-CDC AR 0063; conditions: A. baumannii AR 0063
# [3] = system: Acinetobacter baumannii ATCC 19606; assay: MIC of antibiotics with or without paenipeptin analogues (potentiation); type: cell-based; conditions: A. baumannii ATCC 19606
# Excerpt: (§1) Gram-negative bacteria, including Acinetobacter and Klebsiella, are intrinsically resistant to the hydrophobic antibiotic rifampicin.
# [4] = system: Klebsiella pneumoniae ATCC 13883; assay: as above; type: cell-based; conditions: K. pneumoniae ATCC 13883
# Excerpt: as §1
# [5] = system: Acinetobacter baumannii ATCC 19606; type: cell-based; conditions: ATCC 19606
# Method: as §3, §4
# [6] = system: K. pneumoniae FDA-CDC AR 0044
# [7] = system: K. pneumoniae FDA-CDC AR 0068
# [8] = system: K. pneumoniae FDA-CDC AR 0097; conditions: K. pneumoniae AR 0097
# [9] = system: K. pneumoniae FDA-CDC AR 0034; conditions: K. pneumoniae AR 0034
# [10] = system: Staphylococcus aureus ATCC 29213; type: cell-based; conditions: ATCC 29213
# Method: as §3, §4
# [11] = system: methicillin-resistant S. aureus ATCC 43300; type: cell-based, Staphylococcus aureus; conditions: ATCC 43300
# [12] = system: A. baumannii FDA-CDC AR 0037; conditions: A. baumannii AR 0037
# [13] = Cytotoxicity, MTT assay; type: cell-based, human; conditions: human, HEK 293 cells
# Method: Cytotoxicity of paenipeptin analogues was determined against a human kidney cell line (HEK 293) using MTT assays (Huang E, Yousef AE. 2014. Paenibacterin, a novel broad-spectrum lipopeptide antibiotic, neutralises endotoxins and promotes survival in a murine model of Pseudomonas aeruginosa-induced sepsis. Int J Antimicrob Agents 44: 74-77). Cell viability was measured at 24 h following the addition of lipopeptides at concentrations between 30-105 μg/ml. The viability of human embryonic kidney cells (HEK 293) decreased with the increase of paenipeptin concentration. The viability of HEK 293 cells in the presence of paenipeptin analogue 1 and 15 at 105 μg/ml was 61% and 67%, respectively (Table 10). The relatively low cytotoxicity of paenipeptin analogue 1 and 15 was correlated with their low hemolytic activity against red blood cells.
# [14] = system: K. pneumoniae FDA-CDC AR 0080; conditions: K. pneumoniae AR 0080
# [15] = system: rabbit red blood cells; assay: Hemolytic activity; type: cell-based; conditions: for Hemolysis: relative to Triton X-100
# Method in brief: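 Washed defibrinated rabbit RBCs in PBS pH 7.2 incubated 30 min at 37 °C with paenipeptin analogues at 16–128 μg/mL final. Released hemoglobin read at 415 nm in the supernatant; % hemolysis relative to 0.1% Triton X-100.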
# [16] = system: Klebsiella pneumoniae ATCC 13883; type: cell-based; conditions: ATCC 13883
# Method: as §3, §4
# [17] = system: A. baumannii FDA-CDC AR 0083; conditions: A. baumannii AR 0083
# [18] = system: Pseudomonas aeruginosa ATCC 27853; type: cell-based; conditions: ATCC 27853
# [19] = system: A. baumannii FDA-CDC AR 0063; assay: Time-kill kinetics in 95% human serum, alone and combined; type: cell-based, Acinetobacter baumannii; conditions: A. baumannii AR 0063, 24 h
# Method: (§2) Bacterial viable counts were determined at 0, 2, 4, 6, and 24 h after antimicrobial treatment. Bacterial surviving counts at 24 h endpoints were subjected to analysis of variance (ANOVA) followed by Tukey's honest significant difference (HSD) tests using SPSS Statistics (version 24; SPSS, Inc., Chicago, Ill., USA).
# To further test the therapeutic potential of paenipeptin analogues, the time-kill kinetics assays of paenipeptins alone or in combination with other antibiotics were performed in 95% human serum in vitro. Without antimicrobial treatment, the population of A. baumannii FDA-CDC AR 0063 increased from 5.8 log to 9.3 log within 24 h. […] (FIG. 7A).
# [20] = system: A. baumannii FDA-CDC AR 0052; conditions: FDA-CDC AR 0052
# [21] = system: K. pneumoniae FDA-CDC AR0097; assay: Time-kill kinetics in 95% human serum, alone and combined; type: cell-based, Klebsiella pneumoniae
# Method: as §2
# To further test the therapeutic potential of paenipeptin analogues, the time-kill kinetics assays of paenipeptins alone or in combination with other antibiotics were performed in 95% human serum in vitro.
# [22] = system: A. baumannii FDA-CDC AR 0063; type: cell-based, Acinetobacter baumannii; conditions: FDA-CDC AR 0063, 24 h
# Method: as §2
# [23] = system: Enterococcus faecium ATCC 19434; type: cell-based; conditions: ATCC 19434
# Method: as §3, §4
# [24] = system: A. baumannii FDA-CDC AR 0037; assay: microbe, parasite or virus in culture; conditions: Acinetobacter baumannii, read-out: MIC alone
# [25] = system: A. baumannii FDA-CDC AR 0052; assay: microbe, parasite or virus in culture; conditions: Acinetobacter baumannii, read-out: MIC alone
# [26] = system: K. pneumoniae FDA-CDC AR 0080; assay: microbe, parasite or virus in culture; conditions: Klebsiella pneumoniae, read-out: MIC alone
# [27] = system: A. baumannii FDA-CDC AR 0083; assay: microbe, parasite or virus in culture; conditions: Acinetobacter baumannii, read-out: MIC alone
# [28] = system: K. pneumoniae FDA-CDC AR 0068; assay: microbe, parasite or virus in culture; conditions: Klebsiella pneumoniae, read-out: MIC alone
# [29] = system: K. pneumoniae FDA-CDC AR 0044; assay: microbe, parasite or virus in culture; conditions: Klebsiella pneumoniae, read-out: MIC alone
# [30] = system: A. baumannii FDA-CDC AR 0070; assay: microbe, parasite or virus in culture; conditions: Acinetobacter baumannii, read-out: MIC alone
# [31] = system: K. pneumoniae FDA-CDC AR 0097; assay: microbe, parasite or virus in culture; conditions: Klebsiella pneumoniae, read-out: MIC alone
# [32] = system: K. pneumoniae FDA-CDC AR 0034; assay: microbe, parasite or virus in culture; conditions: Klebsiella pneumoniae, read-out: MIC alone
# [33] = system: A. baumannii FDA-CDC AR 0063; assay: microbe, parasite or virus in culture; conditions: Acinetobacter baumannii, read-out: MIC alone
# [34] = system: K. pneumoniae FDA-CDC AR 0097; assay: Time-kill kinetics in tryptic soy broth, alone and combined; type: cell-based, Klebsiella pneumoniae; conditions: K. pneumoniae AR 0097; TSB; analogues 4 μg/ml, antibiotics 1 μg/ml
# Method: as §2
# [35] = system: Klebsiella pneumoniae AR 0109; conditions: K. pneumoniae AR 0109, polymyxin-resistant
# Method: (§5) The minimum inhibitory concentration (MIC) of paenipeptin analogues was determined using the broth microdilution method (Wirker, M. A. Methods for Dilution Antimicrobial Susceptibility Tests for Bacteria that Grow Aerobically: Approved Standard M07-A8; Clinical and Laboratory Standards Institute, Wayne, Pa., 2009).
# as §4
# (§6) There were at least three independent experiments with one replicate in each experiment.
# [36] = system: Escherichia coli AR 0494 (mcr-1); conditions: E. coli AR 0494, mcr-1, polymyxin-resistant
# Method: as §5, §4, §6
# [37] = system: E. coli UAMS-ECPR2; conditions: E. coli UAMS-ECPR2, polymyxin-resistant
# Method: as §5, §4, §6
# [38] = system: K. pneumoniae UAMS-KPPR1; assay: MIC, polymyxin-resistant strain; type: cell-based, Klebsiella pneumoniae
# Method: as §3, §4, §6
# [39] = system: K. pneumoniae UAMS-KPPR3; assay: MIC, polymyxin-resistant strain; type: cell-based, Klebsiella pneumoniae
# Method: as §3, §4, §6
# [40] = system: E. coli UAMS-ECPR1; conditions: E. coli UAMS-ECPR1, polymyxin-resistant
# Method: as §5, §4, §6
compound,measurement,setting,value
CCCCCC(=O)N[C@@H](CCN)C(=O)N[C@H](C(=O)N[C@@H](CCN)C(=O)N[C@H](Cc1ccccc1)C(=O)N[C@@H](CC(C)C)C(=O)N[C@@H](CCN)C(=O)N[C@@H](C(=O)N[C@@H](CC(C)C)C(=O)N[C@@H](CO)C(N)=O)C(C)C)[C@@H](C)CC [Analogue 1] (Hexanoyl-[Dab]I[Dab][dF]L[Dab][dV]LS-NH2),MIC,[1],8 to 16 µg/mL
same,MIC of clarithromycin at the presence of PMBN or paenipeptin analogue at 4 μg/ml,[2],0.0313 μg/ml
same,MIC of rifampicin at the presence of PMBN or paenipeptin analogue at 4 μg/ml,[2],≤0.0019 μg/ml
same,MIC of rifampicin at 2 μg/mL of paenipeptin analogue,[3],0.0078-0.0156 μg/ml
same,MIC of rifampicin at 4 μg/mL of paenipeptin analogue,[3],0.00195-0.0039 μg/ml
same,Sensitization factor (rifampicin),[3]; MIC without / with 4 μg/mL paenipeptin,"4,096-8,192"
same,MIC of rifampicin at 2 μg/mL of paenipeptin analogue,[4],0.0039 μg/ml
same,MIC of rifampicin at 4 μg/mL of paenipeptin analogue,[4],0.00195 μg/ml
same,MIC,[5],>32 µg/mL
same,MIC alone,[6]; FDA-CDC AR 0044,16 µg/mL
same,MIC of clarithromycin at the presence of PMBN or paenipeptin analogue at 4 μg/ml,[6]; K. pneumoniae AR 0044,0.0156 μg/ml
same,MIC of rifampicin at the presence of PMBN or paenipeptin analogue at 4 μg/ml,[6]; K. pneumoniae AR 0044,≤0.0019 μg/ml
same,MIC alone,[7]; FDA-CDC AR 0068,>32 µg/mL
same,MIC of clarithromycin at the presence of PMBN or paenipeptin analogue at 4 μg/ml,[7]; K. pneumoniae AR 0068,1 μg/ml
same,MIC of rifampicin at the presence of PMBN or paenipeptin analogue at 4 μg/ml,[7]; K. pneumoniae AR 0068,0.0039-0.0156 μg/ml
same,MIC of clarithromycin at the presence of PMBN or paenipeptin analogue at 4 μg/ml,[8],0.0313-0.0625 μg/ml
same,MIC of rifampicin at the presence of PMBN or paenipeptin analogue at 4 μg/ml,[8],0.0039-0.0078 μg/ml
same,MIC of clarithromycin at the presence of PMBN or paenipeptin analogue at 4 μg/ml,[9],0.25 μg/ml
same,MIC of rifampicin at the presence of PMBN or paenipeptin analogue at 4 μg/ml,[9],≤0.0019 μg/ml
same,MIC,[10],>32 µg/mL
same,MIC,[11],>32 µg/mL
same,MIC of clarithromycin at the presence of PMBN or paenipeptin analogue at 4 μg/ml,[12],0.0313 μg/ml
same,MIC of rifampicin at the presence of PMBN or paenipeptin analogue at 4 μg/ml,[12],0.0039 μg/ml
same,increase in antibiotic activity of clarithromycin,[12]; analogue at 4 μg/mL,512 fold
same,"viability at 24 h, 30 µg/mL",[13],85.2 ± 10.2%
same,"viability at 24 h, 45 µg/mL",[13],78.4 ± 11.2%
same,"viability at 24 h, 60 µg/mL",[13],78.4 ± 13.5%
same,"viability at 24 h, 75 µg/mL",[13],73.1 ± 11.3%
same,"viability at 24 h, 90 µg/mL",[13],69 ± 8.14%
same,"viability at 24 h, 105 µg/mL",[13],61 ± 6.38%
same,MIC of clarithromycin at the presence of PMBN or paenipeptin analogue at 4 μg/ml,[14],0.0313 μg/ml
same,MIC of rifampicin at the presence of PMBN or paenipeptin analogue at 4 μg/ml,[14],0.0625 μg/ml
same,Hemolysis,[15]; 16 μg/mL,0.48 ± 0.64%
same,Hemolysis,[15]; 32 μg/mL,0.41 ± 0.58%
same,Hemolysis,[15]; 64 μg/mL,0.08 ± 0.85%
same,hemolytic activity (in words),[15]; 128 μg/mL,little hemolysis; also recorded: nonhemolytic
same,Hemolysis,[15]; 128 μg/mL,0.61 ± 0.25%
same,MIC,[16],≥32 µg/mL
same,MIC of clarithromycin at the presence of PMBN or paenipeptin analogue at 4 μg/ml,[17],16 μg/ml
same,MIC of rifampicin at the presence of PMBN or paenipeptin analogue at 4 μg/ml,[17],0.25-0.5 μg/ml
same,MIC,[18],8 to 16 µg/mL
same,"decrease of bacterial population, analogue 4 μg/ml in combination with rifampicin 4 μg/ml",[19],2.7 log
same,"log reduction, analogue 4 μg/ml in combination with clarithromycin 4 μg/ml",[19],1.3 log
same,MIC alone,[20],2 to 4 µg/mL
same,"log reduction, analogue 4 μg/ml in combination with clarithromycin 4 μg/ml",[21]; 24 h,4.9 log
same,"log reduction, analogue 4 μg/ml in combination with rifampicin 4 μg/ml",[21]; 24 h,4.9 log
same,"log inactivation, single agent at 4 μg/ml",[21]; within 24 h,4.2 log
same,"log reduction, analogue 4 μg/ml in combination with rifampicin 1 μg/ml",[22],4.7-5.1 log
same,MIC,[23],>32 µg/mL
CC[C@H]1OC(=O)[C@H](C)[C@@H](O[C@H]2C[C@@](C)(OC)[C@@H](O)[C@H](C)O2)[C@H](C)[C@@H](O[C@@H]2O[C@H](C)C[C@H](N(C)C)[C@H]2O)[C@](C)(OC)C[C@@H](C)C(=O)[C@H](C)[C@@H](O)[C@]1(C)O [clarithromycin],MIC,[24],16 µg/mL
same,MIC,[25],4 µg/mL
same,MIC,[26],> 32 µg/mL
same,MIC,[27],> 32 µg/mL
same,MIC,[28],> 32 µg/mL
same,MIC,[29],> 32 µg/mL
same,MIC,[30],2 to 4 µg/mL
same,MIC,[31],> 32 µg/mL
same,MIC,[32],> 32 µg/mL
same,MIC,[33],16 to 32 µg/mL
same,"bactericidal activity, single agent (in words)",[34],not bactericidal
Polymyxin B [reference compound],Minimum inhibitory concentration,[35],16 to 32 µg/mL
same,Minimum inhibitory concentration,[36],2 to 8 µg/mL
same,Minimum inhibitory concentration,[37],32 µg/mL
same,Minimum inhibitory concentration,[38],>32 µg/mL
same,Minimum inhibitory concentration,[39],>32 µg/mL
same,Minimum inhibitory concentration,[40],32 µg/mL
